Tests used:
[1] = biological target: T1, Retinoic acid receptor alpha (Homo sapiens, UniProt P10276); test: Inhibition of [3H]ATRA binding to retinoic acid receptor RAR alpha
T1 sequence (P10276 whole entry): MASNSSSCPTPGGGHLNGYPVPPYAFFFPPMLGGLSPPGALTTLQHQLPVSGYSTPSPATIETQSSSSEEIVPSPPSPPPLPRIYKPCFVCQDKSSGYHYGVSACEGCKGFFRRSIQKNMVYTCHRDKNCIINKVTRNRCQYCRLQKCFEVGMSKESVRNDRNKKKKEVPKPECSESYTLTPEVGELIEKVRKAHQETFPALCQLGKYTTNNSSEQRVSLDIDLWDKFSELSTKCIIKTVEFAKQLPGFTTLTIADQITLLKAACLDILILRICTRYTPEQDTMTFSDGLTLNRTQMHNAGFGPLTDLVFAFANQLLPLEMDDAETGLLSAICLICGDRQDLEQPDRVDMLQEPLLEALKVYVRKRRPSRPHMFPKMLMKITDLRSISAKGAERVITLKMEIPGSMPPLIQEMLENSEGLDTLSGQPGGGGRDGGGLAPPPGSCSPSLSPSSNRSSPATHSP

[2] = biological target: T2, Retinoic acid receptor RXR-gamma (Mus musculus, UniProt P28705); test: (§1) Effective potency in transcriptional activation assay in CV-1 cells expressing Retinoid X receptor RXR gamma; format: cell-based
T2 sequence (P28705 whole entry): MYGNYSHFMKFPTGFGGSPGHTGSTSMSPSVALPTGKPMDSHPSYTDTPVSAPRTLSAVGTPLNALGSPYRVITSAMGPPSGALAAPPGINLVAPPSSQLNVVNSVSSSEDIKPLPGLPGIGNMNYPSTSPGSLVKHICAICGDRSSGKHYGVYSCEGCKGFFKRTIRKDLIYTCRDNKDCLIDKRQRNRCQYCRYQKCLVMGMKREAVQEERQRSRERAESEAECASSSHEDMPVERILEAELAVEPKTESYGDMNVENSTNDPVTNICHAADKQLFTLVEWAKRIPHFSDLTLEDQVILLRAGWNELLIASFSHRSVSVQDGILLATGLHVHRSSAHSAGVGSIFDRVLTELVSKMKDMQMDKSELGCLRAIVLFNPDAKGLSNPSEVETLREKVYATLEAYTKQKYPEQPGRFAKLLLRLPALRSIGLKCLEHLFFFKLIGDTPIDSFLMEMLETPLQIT

[3] = biological target: T3, Retinoic acid receptor RXR-beta (Mus musculus, UniProt P28704); test: Effective potency in transcriptional activation assay in CV-1 cells expressing Retinoid X receptor RXR beta; format: functional, cell-based
T3 sequence (P28704 whole entry): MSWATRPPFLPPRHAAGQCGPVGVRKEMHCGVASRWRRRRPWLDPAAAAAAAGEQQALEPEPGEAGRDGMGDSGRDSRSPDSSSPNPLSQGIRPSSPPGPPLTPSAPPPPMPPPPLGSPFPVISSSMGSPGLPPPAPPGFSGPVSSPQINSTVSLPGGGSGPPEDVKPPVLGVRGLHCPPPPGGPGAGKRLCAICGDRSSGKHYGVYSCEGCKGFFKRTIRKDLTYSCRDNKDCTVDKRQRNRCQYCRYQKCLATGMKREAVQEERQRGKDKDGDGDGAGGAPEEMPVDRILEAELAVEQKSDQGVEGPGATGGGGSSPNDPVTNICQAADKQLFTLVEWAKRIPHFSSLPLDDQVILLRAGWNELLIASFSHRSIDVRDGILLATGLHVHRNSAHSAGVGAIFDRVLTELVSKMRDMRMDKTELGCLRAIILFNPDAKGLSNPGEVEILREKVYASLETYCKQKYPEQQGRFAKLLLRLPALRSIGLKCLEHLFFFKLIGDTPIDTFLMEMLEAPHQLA

[4] = biological target: T4, Retinoic acid receptor gamma (Homo sapiens, UniProt P13631); details: cv-1
T4 sequence (P13631 whole entry): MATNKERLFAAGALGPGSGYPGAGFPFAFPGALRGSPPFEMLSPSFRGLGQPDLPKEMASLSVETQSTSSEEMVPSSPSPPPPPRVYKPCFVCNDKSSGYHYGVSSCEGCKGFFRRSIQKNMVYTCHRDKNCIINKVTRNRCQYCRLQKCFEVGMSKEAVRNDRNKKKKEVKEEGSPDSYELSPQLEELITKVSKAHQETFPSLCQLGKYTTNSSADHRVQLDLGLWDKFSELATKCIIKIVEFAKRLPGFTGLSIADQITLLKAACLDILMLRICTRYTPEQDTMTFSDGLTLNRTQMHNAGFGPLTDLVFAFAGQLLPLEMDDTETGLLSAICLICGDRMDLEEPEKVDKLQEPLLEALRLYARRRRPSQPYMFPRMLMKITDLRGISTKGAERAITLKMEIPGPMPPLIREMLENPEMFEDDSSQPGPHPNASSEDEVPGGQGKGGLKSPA

[5] = biological target: T5, Retinoic acid receptor RXR-gamma (Mus musculus) (UniProt P28705); test: Percent efficacy for Retinoid X receptor RXR gamma in CV-1 cell transcriptional activation assay; format: cell-based
T5 sequence (whole entry): T2 sequence (P28705 whole entry)

[6] = biological target: T3, Retinoic acid receptor RXR-beta; test: Inhibition of [3H]9-cis-RA binding to Retinoid X receptor RXR beta
[7] = biological target: T2, Retinoic acid receptor RXR-gamma; test: Inhibition of [3H]9-cis-RA binding to Retinoid X receptor RXR gamma
[8] = biological target: T6, Retinoic acid receptor beta (Homo sapiens, UniProt P10826); test: Inhibition of [3H]ATRA binding to retinoic acid receptor RAR beta
T6 sequence (P10826 whole entry): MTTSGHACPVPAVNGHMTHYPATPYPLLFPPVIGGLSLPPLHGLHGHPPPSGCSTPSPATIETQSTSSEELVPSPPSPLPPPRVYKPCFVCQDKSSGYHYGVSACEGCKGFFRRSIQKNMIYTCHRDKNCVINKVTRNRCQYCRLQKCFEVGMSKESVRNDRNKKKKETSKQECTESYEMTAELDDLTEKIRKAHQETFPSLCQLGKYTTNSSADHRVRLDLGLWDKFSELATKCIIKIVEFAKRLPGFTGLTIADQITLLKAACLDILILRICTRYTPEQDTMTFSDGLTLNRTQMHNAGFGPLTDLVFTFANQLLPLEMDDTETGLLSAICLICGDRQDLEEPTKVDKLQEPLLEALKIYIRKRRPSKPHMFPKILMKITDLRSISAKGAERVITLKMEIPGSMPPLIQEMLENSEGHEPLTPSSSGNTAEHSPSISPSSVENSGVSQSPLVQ

[9] = biological target: T1, Retinoic acid receptor alpha; test: Effective potency in transcriptional activation assay in CV-1 cells expressing retinoic acid receptor RAR alpha; Not active; format: functional, cell-based
[10] = biological target: T4, Retinoic acid receptor gamma; test: Inhibition of [3H]-ATRA binding to Retinoic acid receptor RAR gamma
[11] = biological target: T7, Retinoic acid receptor RXR-alpha (Homo sapiens, UniProt P19793); test: Inhibition of [3H]9-cis-RA binding to Retinoid X receptor RXR alpha
T7 sequence (P19793 whole entry): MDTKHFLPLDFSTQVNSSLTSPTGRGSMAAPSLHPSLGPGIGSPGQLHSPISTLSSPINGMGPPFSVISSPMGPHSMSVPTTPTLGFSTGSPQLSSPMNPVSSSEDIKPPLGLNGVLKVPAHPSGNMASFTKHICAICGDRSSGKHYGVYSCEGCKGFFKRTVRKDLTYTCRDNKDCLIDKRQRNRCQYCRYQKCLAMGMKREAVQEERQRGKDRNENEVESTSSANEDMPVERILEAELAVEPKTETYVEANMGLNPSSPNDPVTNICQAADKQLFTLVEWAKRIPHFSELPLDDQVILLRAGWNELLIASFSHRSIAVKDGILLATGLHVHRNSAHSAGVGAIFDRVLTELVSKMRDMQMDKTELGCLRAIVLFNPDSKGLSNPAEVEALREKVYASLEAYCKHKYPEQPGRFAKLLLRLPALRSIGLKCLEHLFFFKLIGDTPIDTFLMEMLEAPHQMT

[12] = biological target: T6, Retinoic acid receptor beta; details: cv-1
[13] = biological target: T7, Retinoic acid receptor RXR-alpha; test: Effective potency in transcriptional activation assay in CV-1 cells expressing Retinoid X receptor RXR alpha; format: functional, cell-based
[14] = biological target: T8, Retinoic acid receptor RXR-beta (Mus musculus) (UniProt P28704); test: Percent efficacy for Retinoid X receptor RXR beta in CV-1 cell transcriptional activation assay; format: functional, cell-based
T8 sequence (whole entry): T3 sequence (P28704 whole entry)

[15] = biological target: T4, Retinoic acid receptor gamma; test: Effective potency in transcriptional activation assay in CV-1 cells expressing retinoic acid receptor RAR gamma; format: functional, cell-based
[16] = biological target: T6, Retinoic acid receptor beta; test: Effective potency in transcriptional activation assay in CV-1 cells expressing retinoic acid receptor RAR beta; format: functional, cell-based
[17] = biological target: T2, Retinoic acid receptor RXR-gamma; test: as §1; format: functional, cell-based

Ki [1]	EC50 [2]	EC50 [3]	EC50 [4]	Efficacy [5]	Ki [6]	Ki [7]	Ki [8]	EC50 [9]	Ki [10]	Ki [11]	EC50 [12]	EC50 [13]	Efficacy [14]	EC50 [15]	EC50 [16]	EC50 [17]	SMILES
> 1000 nM	25 nM	29 nM	Not Active	58%	11 nM	26 nM	> 1000 nM	Not Active	> 1000 nM	15 nM	Not Active	31 nM	101%				CC(/C=C/[C@@H]1CCC[C@@H]1c1ccc2c(c1)C(C)(C)CCC2(C)C)=C\C(=O)O
> 1000 nM	44 nM	62 nM	Not Active	38%	10 nM	7 nM	> 1000 nM	Not Active	> 1000 nM	4 nM	Not Active	62 nM	50%				CC(/C=C/[C@]1(C)CCCC1c1ccc2c(c1)C(C)(C)CCC2(C)C)=C\C(=O)O (single isomer, unassigned)
> 1000 nM	212 nM	222 nM		99%	252 nM	54 nM	> 1000 nM	Not Active	> 1000 nM	38 nM		189 nM	169%	355 nM	559 nM		C=C1C[C@H](c2ccc3c(c2)C(C)(C)CCC3(C)C)[C@@H](/C=C/C(C)=C/C(=O)O)C1
> 1000 nM	16 nM	14 nM		72%	10 nM	7 nM	> 1000 nM	Not Active	> 1000 nM	4 nM		7 nM	110%	1780 nM	809 nM		CC(/C=C/[C@@]1(C)CCCC1c1ccc2c(c1)C(C)(C)CCC2(C)C)=C\C(=O)O (single isomer, unassigned)
> 1000 nM	6 nM	10 nM		70%	6 nM	5 nM	> 1000 nM	Not Active	> 1000 nM	3 nM		8 nM	110%	1290 nM	637 nM		CC(/C=C/[C@H]1CCC[C@@H]1c1ccc2c(c1)C(C)(C)CCC2(C)C)=C\C(=O)O
> 1000 nM	40 nM	42 nM		62%	36 nM	58 nM	> 1000 nM	Not Active	> 1000 nM	20 nM		53 nM	70%	1150 nM	339 nM		CC(/C=C/C1=C(c2ccc3c(c2)C(C)(C)CCC3(C)C)CCC1)=C\C(=O)O
> 1000 nM	128 nM	191 nM	Not Active	42%	25 nM	22 nM	> 1000 nM	Not Active	> 1000 nM	5 nM	Not Active	95 nM	44%				CC(/C=C/C1=C(c2cc3c(cc2C)C(C)(C)CCC3(C)C)CCC1)=C\C(=O)O
> 1000 nM		220 nM	Not Active	90%	556 nM	161 nM	> 1000 nM	Not Active	> 1000 nM	66 nM	Not Active	169 nM	369%			204 nM	C=C1C[C@@H](/C=C/C(C)=C/C(=O)O)[C@@H](c2ccc3c(c2)C(C)(C)CCC3(C)C)C1
				85%													C=C(c1ccc(C(=O)O)cc1)c1cc2c(cc1C)C(C)(C)CCC2(C)C
> 1000 nM	3 nM	3 nM		77%	10 nM	5 nM	> 1000 nM	Not Active	> 1000 nM	3 nM	Not Active	4 nM	92%	209 nM			CC(/C=C/[C@]12CCC[C@@]1(c1ccc3c(c1)C(C)(C)CCC3(C)C)C2)=C\C(=O)O

From ChEMBL document CHEMBL1149945, “Synthesis and structure-activity relationships of potent retinoid X receptor ligands” (Bioorg Med Chem Lett, 1997)
